# Measured values reported in ChEMBL document CHEMBL1201862, “PubChem BioAssay data set” (2004).
# The source made the active and inactive calls.
# How the values were obtained:
# [1] = biological target: 5-hydroxytryptamine receptor 5A (Homo sapiens, UniProt P47898); test: Counterscreen for agonists of OPRM1-OPRD1 heterodimerization: luminescence-based cell-based high throughput dose response assay to identify agonists of 5-hydroxytryptamine (serotonin) 5A receptor (HTR5A). [Related pubchem assays (depositor defined):AID504326, AID504355, AID504692, AID504904, AID504905]; type: functional
# Sequence of 5-hydroxytryptamine receptor 5A (P47898 whole entry): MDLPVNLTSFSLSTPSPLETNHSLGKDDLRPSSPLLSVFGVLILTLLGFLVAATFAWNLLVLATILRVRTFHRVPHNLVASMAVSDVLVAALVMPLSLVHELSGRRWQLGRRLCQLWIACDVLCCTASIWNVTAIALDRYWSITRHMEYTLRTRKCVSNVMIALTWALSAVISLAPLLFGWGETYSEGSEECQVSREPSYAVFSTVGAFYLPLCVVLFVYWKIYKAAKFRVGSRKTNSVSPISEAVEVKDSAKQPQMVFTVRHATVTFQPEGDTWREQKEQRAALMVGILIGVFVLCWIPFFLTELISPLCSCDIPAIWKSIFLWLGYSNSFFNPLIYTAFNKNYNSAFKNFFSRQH
# [2] = biological target: Delta-type opioid receptor (Homo sapiens, UniProt P41143); test: Counterscreen for agonists of heterodimerization of the mu 1 (OPRM1) and delta 1 (OPRD1) opioid receptors: Luminescence-based cell-based high throughput dose response assay to identify agonists of OPRD1 homodimerization. [Related pubchem assays (depositor defined):AID504326, AID504355, AID504692, AID504904, AID504905]; type: functional
# Sequence of Delta-type opioid receptor (P41143 whole entry): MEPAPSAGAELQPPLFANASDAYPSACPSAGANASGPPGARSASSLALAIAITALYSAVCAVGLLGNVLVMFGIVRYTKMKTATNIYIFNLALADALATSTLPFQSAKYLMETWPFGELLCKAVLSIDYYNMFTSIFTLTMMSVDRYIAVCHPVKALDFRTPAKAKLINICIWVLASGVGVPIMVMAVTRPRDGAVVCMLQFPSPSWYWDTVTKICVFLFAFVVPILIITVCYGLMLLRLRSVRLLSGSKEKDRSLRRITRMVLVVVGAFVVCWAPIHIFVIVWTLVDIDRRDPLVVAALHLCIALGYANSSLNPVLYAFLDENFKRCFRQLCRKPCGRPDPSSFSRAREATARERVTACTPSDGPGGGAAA
# [3] = biological target: Mu-type opioid receptor (Homo sapiens, UniProt P35372); test: Counterscreen for agonists of heterodimerization of the mu 1 (OPRM1) and delta 1 (OPRD1) opioid receptors: Luminescence-based cell-based high throughput dose response assay to identify agonists of OPRM1 homodimerization.; type: functional;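 also: U2OS cells expressing OPRM1 and beta-arrestin as split beta-galactosidase partners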
# Sequence of Mu-type opioid receptor (P35372 whole entry): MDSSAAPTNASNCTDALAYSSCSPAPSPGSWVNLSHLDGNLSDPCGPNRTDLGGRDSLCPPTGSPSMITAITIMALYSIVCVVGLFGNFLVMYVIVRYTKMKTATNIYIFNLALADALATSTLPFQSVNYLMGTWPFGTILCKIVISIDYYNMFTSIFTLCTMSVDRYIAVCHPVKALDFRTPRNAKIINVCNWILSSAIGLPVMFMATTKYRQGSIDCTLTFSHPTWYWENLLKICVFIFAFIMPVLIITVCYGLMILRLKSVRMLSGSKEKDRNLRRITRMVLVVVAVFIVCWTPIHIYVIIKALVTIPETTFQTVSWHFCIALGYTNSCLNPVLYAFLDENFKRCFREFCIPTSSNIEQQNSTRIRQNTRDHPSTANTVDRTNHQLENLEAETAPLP
# [4] = biological target: T1, Microphthalmia-associated transcription factor (Homo sapiens, UniProt O75030); test: reducers of TRPM1 reporter luminescence, concentration series – cell-based, SK-MEL-5, cherry-picked, set 3, MITF inhibitor project, dose response (AID 493073); type: functional;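 also: SK-MEL-5 melanoma cells with luciferase driven by the MITF target TRPM1 promoter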
# T1 sequence (O75030 whole entry): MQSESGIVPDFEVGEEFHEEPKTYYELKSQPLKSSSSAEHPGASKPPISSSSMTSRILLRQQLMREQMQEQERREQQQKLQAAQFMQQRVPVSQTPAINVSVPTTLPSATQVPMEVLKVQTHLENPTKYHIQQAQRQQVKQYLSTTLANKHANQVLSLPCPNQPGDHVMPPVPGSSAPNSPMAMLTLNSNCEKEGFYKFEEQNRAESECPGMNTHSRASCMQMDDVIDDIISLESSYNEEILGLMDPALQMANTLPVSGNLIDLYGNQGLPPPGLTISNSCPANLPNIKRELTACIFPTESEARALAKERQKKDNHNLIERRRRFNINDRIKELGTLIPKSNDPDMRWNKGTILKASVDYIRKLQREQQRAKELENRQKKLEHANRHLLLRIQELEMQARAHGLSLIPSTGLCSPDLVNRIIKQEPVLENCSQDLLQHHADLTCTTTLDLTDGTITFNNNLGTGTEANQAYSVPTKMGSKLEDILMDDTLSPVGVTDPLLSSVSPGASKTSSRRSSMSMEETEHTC
# [5] = Luminescence Cell-Based Dose Response HTS to Identify Activators of Luciferase Translation or Activity in H4 […] Cells. [Related pubchem assays: 1829 (Project Summary), 1814 (Primary HTS)]; type: functional
# [6] = Luminescence Cell-Based Dose Confirmation HTS to Identify Activators of 5'UTR Stem-Loop Driven Alpha-Synuclein mRNA Translation in H4 Neuroglioblastoma Cells. [Related pubchem assays: 1829 (Project Summary), 1814 (Primary HTS)]; type: functional
# [7] = test system: H4; test: Luminescence Cell-Based Dose Response HTS to Identify Activators of 5'UTR Stem-Loop Driven Prion Protein mRNA Translation in H4 Neuroglioblastoma Cells. [Related pubchem assays: 1829 (Project Summary), 1814 (Primary HTS)]; type: functional; conditions: Homo sapiens
# [8] = Luminescence Cell-Based Dose Retest to Confirm Inhibitors of Cancer Stem Cells. [Related pubchem assays (depositor defined):AID2717, AID2721]; type: functional; conditions: Homo sapiens
# [9] = viability loss of HMLE_sh_eGFP cells – cell-based, luminescence, counter-screen for HMLE_sh_ECad selective toxicity project, dose response (AID 463074); type: functional, Homo sapiens;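 also: HMLE human mammary epithelial cells expressing control shRNA against eGFP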
# [10] = test system: Streptococcus; test: GAS UMAA2166 growth inhibition – luminescence, BacTiterGlo, counter-screen for streptokinase expression inhibitor project, dose response (AID 1915); type: functional, organism-based;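 also: potency for reduction of bacterial viability or growth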
# [11] = test system: Streptococcus sp. 'group A'; test: Streptococcus pyogenes SK(-)GAS viability under kanamycin – luminescence, BacTiterGlo, confirmation, counter-screen for streptokinase expression inhibitor project, dose response (AID 1900); type: functional, organism-based
# [12] = biological target: T2, Streptokinase A (Streptococcus pyogenes serotype M1, UniProt P10520); test: viability-normalized secreted streptokinase activity reduction – plasminogen activation absorbance, OD405, dose response (AID 1914); type: functional, Streptococcus pyogenes M1 GAS;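 also: secreted streptokinase activity via plasminogen activation per viability signal from cell pellet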
# T2 sequence (P10520 whole entry): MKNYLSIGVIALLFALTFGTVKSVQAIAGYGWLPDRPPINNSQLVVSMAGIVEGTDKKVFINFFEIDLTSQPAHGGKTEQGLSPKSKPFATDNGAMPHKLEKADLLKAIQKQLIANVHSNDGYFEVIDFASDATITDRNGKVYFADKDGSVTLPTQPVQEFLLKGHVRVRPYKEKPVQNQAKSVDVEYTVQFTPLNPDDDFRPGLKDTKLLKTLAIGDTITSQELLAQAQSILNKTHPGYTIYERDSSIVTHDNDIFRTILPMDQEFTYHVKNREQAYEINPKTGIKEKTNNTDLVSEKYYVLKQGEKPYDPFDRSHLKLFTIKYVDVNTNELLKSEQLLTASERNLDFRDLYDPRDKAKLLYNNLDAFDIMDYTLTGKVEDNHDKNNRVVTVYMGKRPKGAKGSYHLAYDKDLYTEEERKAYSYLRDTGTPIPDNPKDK
# [13] = biological target: T3, High affinity choline transporter 1 (Homo sapiens, UniProt Q9GZV3); test: human choline transporter blockers, potency – cell-based, 5-point CRC, membrane potential dye, dose response (AID 504840); type: functional
# T3 sequence (Q9GZV3 whole entry): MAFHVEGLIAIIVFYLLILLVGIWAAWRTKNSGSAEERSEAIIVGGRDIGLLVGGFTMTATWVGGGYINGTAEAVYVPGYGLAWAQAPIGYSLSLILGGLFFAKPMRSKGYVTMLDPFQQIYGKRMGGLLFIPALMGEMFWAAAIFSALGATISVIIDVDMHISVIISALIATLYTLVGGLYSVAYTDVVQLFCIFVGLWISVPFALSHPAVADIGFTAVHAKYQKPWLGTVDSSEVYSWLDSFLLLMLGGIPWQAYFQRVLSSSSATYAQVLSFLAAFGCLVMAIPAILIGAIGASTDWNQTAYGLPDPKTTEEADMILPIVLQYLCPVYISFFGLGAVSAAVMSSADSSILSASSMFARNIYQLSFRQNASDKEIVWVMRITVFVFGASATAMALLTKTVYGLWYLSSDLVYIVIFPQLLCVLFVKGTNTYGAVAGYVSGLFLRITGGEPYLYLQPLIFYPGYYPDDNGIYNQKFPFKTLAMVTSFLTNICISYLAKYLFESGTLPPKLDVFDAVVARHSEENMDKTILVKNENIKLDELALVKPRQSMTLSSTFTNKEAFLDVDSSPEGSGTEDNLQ
# [14] = biological target: T4, Rac GTPase-activating protein 1 (Homo sapiens, UniProt Q9H0H5); test: blockers of MgcRacGAP-driven Rac1 GTP hydrolysis – biochemical, ADP Hunter fluorescence, primary and confirmatory, confirmation (AID 624330); type: functional
# T4 sequence (Q9H0H5 whole entry): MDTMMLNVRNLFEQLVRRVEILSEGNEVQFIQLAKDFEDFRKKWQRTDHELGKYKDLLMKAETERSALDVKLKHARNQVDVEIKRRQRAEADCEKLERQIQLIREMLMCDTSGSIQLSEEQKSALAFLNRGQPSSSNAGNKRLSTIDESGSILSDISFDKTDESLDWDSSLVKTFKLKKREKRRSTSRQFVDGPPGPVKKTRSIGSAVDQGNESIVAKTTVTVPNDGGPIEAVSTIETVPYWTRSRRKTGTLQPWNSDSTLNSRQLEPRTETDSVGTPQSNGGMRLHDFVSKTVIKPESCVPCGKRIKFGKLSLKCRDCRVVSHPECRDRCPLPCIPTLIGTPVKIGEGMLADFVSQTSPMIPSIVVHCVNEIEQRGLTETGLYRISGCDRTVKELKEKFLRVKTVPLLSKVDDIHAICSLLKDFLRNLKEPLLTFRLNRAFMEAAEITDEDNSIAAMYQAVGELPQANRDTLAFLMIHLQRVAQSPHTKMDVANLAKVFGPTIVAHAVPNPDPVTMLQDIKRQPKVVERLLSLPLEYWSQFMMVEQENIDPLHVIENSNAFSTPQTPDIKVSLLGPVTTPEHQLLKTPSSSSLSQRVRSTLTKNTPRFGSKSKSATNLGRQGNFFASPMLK
# [15] = biological target: Large T antigen (Simian virus 40, UniProt P03070); type: functional, Betapolyomavirus macacae;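 also: Confirmatory-stage PubChem screen for compounds that inhibit SV40 T antigen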
# Sequence of Large T antigen (P03070 whole entry): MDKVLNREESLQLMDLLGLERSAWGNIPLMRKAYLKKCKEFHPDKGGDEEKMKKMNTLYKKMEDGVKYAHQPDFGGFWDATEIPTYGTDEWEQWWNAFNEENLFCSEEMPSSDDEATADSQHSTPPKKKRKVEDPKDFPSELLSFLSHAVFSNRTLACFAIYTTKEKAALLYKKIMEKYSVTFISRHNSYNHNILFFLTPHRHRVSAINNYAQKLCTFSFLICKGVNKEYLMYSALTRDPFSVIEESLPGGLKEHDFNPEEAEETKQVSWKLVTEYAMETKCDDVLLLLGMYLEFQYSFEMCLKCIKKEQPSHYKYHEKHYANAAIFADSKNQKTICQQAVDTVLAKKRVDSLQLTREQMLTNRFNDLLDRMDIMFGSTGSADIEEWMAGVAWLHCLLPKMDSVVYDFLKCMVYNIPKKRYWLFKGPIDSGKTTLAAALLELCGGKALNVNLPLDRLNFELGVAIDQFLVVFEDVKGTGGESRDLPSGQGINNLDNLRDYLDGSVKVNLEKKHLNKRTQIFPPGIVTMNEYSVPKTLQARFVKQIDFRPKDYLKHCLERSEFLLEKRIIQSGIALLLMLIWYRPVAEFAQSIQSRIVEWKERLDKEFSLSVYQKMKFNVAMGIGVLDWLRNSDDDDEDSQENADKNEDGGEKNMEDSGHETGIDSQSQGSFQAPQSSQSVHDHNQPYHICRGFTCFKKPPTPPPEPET
# [16] = biological target: Dual specificity tyrosine-phosphorylation-regulated kinase 1A (Rattus norvegicus, UniProt Q63470); type: biochemical, Homo sapiens
# [17] = biological target: T5, Cytochrome P450 1A2 (Homo sapiens, UniProt P05177);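 also: PubChem cytochrome P450 panel assay, CYP1A2 panel member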
# T5 sequence (P05177 whole entry): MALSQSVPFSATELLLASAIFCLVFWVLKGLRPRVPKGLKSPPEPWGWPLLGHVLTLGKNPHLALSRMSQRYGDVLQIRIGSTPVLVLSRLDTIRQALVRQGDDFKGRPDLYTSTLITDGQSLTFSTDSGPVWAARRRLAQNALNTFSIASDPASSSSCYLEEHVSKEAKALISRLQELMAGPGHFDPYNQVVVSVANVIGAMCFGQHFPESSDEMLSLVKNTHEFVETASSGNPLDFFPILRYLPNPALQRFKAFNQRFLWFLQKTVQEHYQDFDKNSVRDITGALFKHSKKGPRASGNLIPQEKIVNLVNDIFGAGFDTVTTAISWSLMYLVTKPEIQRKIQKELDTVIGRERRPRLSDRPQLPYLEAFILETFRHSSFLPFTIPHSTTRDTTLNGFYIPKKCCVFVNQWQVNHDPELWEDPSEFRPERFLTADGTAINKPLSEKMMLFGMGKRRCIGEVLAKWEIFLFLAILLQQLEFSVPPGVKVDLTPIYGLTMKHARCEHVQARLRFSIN
# [18] = biological target: Cytochrome P450 2C9 (Homo sapiens, UniProt P11712)
# Sequence of Cytochrome P450 2C9 (P11712 whole entry): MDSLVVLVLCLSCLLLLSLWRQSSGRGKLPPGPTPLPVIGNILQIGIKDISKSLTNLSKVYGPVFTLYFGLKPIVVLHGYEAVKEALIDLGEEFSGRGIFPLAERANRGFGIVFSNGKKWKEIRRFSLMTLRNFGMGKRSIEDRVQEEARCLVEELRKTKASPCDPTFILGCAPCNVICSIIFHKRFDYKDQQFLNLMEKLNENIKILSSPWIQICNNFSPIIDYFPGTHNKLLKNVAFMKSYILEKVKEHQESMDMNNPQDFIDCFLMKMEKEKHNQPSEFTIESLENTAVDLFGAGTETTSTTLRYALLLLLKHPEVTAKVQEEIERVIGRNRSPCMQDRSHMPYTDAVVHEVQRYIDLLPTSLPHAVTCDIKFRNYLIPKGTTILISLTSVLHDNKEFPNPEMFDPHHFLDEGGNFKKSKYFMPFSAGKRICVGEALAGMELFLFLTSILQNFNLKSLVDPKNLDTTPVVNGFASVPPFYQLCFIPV
# [19] = biological target: Cytochrome P450 2C19 (Homo sapiens, UniProt P33261); test: Cytochrome panel assay with activity outcomes. Panel member name: p450-cyp2c19 Compounds with AC50 equal or less than 10 uM are considered active; type: functional
# Sequence of Cytochrome P450 2C19 (P33261 whole entry): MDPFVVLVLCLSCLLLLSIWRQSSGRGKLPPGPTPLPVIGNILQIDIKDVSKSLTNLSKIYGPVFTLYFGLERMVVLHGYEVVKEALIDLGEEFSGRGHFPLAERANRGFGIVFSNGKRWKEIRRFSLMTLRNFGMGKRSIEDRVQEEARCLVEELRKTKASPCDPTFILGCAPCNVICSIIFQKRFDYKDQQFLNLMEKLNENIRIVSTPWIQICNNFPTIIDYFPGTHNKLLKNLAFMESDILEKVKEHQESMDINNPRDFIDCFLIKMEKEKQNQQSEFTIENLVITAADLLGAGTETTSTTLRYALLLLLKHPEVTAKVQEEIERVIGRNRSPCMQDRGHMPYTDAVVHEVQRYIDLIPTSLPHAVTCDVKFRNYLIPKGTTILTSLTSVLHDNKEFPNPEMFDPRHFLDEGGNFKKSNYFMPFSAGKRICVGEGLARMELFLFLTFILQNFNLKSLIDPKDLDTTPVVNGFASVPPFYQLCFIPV
# [20] = reduction of Shn3 3'UTR-driven luciferase in osteoblasts – cell-based, Clone20 osteoblasts, firefly luciferase, cherry-picked, dose response (AID 624132); type: functional;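 also: firefly luciferase luminescence from reporter carrying the Shn3 3'UTR in osteoblasts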
# [21] = biological target: Glucose-6-phosphate 1-dehydrogenase (Homo sapiens, UniProt P11413); test: inhibition of Homo sapiens G6PD, dose series – biochemical, fluorescence, selectivity assay for P. falciparum G6PD inhibitor project, dose response (AID 504792); type: functional
# Sequence of Glucose-6-phosphate 1-dehydrogenase (P11413 whole entry): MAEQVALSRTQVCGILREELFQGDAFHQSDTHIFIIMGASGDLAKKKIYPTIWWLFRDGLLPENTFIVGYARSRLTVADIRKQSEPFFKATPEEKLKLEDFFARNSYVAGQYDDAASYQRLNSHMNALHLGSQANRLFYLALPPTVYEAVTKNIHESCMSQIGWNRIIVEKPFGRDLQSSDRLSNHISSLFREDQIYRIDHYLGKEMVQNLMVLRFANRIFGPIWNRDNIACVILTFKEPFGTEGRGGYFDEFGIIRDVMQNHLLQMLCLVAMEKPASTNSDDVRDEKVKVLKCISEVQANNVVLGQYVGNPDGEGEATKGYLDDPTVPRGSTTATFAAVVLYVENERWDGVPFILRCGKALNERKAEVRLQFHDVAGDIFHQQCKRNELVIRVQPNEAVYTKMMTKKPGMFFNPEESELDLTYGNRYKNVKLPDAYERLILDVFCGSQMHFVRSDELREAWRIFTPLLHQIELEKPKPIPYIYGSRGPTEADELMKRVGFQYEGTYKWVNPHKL
# [22] = loss of viability in HepG2 cells – cell-based, CellTiter-Glo, cherry-picked, cytotoxicity control for Shn3 inhibitor project, dose response (AID 624134); type: functional
# [23] = non-specific 3'UTR reporter inhibition in Clone20-Shn3RL – cell-based, Renilla luciferase, cherry-picked, counter-screen for Shn3 inhibitor project, dose response (AID 624133); type: functional
structure (smiles),measurement,setting,value
Brc1ccc(NC2=Nc3ccccc3CC2)cc1,EC50,[1],> 92.5 µM (inactive)
same,EC50,[2],> 92.5 µM (inactive)
same,EC50,[3],52.1 µM (inactive)
CC(NC(=O)c1ccc([N+](=O)[O-])o1)C12CC3CC(CC(C3)C1)C2 (configuration not stated),AC50,[4],15.1 µM (active)
same,EC50,[5],> 120 µM (not active)
same,EC50,[6],> 120 µM (not active)
same,EC50,[7],13.8 µM (active)
same,AC50,[8],4.68 µM (active)
O=C(CSc1nnc(-c2ccc3c(c2)OCO3)o1)Nc1ncc(C(F)(F)F)cc1Cl,AC50,[9],28.5 µM (active)
same,EC50,[10],20.4 µM (active)
same,EC50,[11],1.16 µM (active)
same,AC50,[8],5.84 µM (active)
same,EC50,[12],> 150 µM (not active)
Cc1cc(/C=N/NC(=O)C(=O)N2CCCC2)c(C)n1-c1cccc(Br)c1,IC50,[13],13.8 µM (active)
Cc1cc(C)nc(-n2ncc3c2CC(c2cccc(Cl)c2)CC3=O)n1 (configuration not stated),AC50,[9],46.8 µM (active)
same,AC50,[8],29.1 µM (active)
CC(/C=C/c1ccc(O)cc1)=N/O,IC50,[14],10.5 µM (active)
same,IC50,[15],8.82 µM (active)
same,AC50,[16],1.54 µM (active)
CCN1CCN(c2ncnc3scc(-c4ccc(OC)cc4)c23)CC1,IC50,[13],12.9 µM (active)
Cc1ccc(C(=O)N/C(=C\c2ccc(-c3ccccc3[N+](=O)[O-])o2)C(=O)NCCN(C)C)cc1,AC50,[4],4.87 µM (active)
CC1CCCCC1NC(=O)c1c(O)n2ccccc2nc1=O (configuration not stated),IC50,[13],4.79 µM (active)
COc1ccc(C(C(=O)NC2CCCCC2)N(C(=O)Cc2c[nH]c3ccccc23)c2ccc(NC(C)=O)cc2)cc1OC (configuration not stated),EC50,[1],> 92.5 µM (inactive)
same,EC50,[2],> 92.5 µM (inactive)
same,EC50,[3],> 92.5 µM (inactive)
same,AC50,[17],25.1 µM (inconclusive)
same,AC50,[18],12.6 µM (inconclusive)
Nc1nc2cc([N+](=O)[O-])ccc2[nH]1,AC50,[16],7.07 µM (active)
CC1=NC(C)(C)Cc2ccccc21.O=C(O)c1ccccc1O,AC50,[19],inconclusive
same,IC50,[13],13.2 µM (active)
COC(=O)c1cc2c(n1S(=O)(=O)c1ccc(C)cc1)C(=O)C(=O)c1[nH]cc(C(=O)OCc3ccccc3)c1-2,EC50,[1],> 92.4 µM (inactive)
same,AC50,[20],1.2 µM (active)
same,IC50,[21],> 80 µM (inactive)
same,EC50,[2],> 92.4 µM (inactive)
same,AC50,[22],1.94 µM (active)
same,EC50,[3],> 92.4 µM (inactive)
same,AC50,[23],1.64 µM (active)
